According to patent US10780101B2, “Amide derivatives of squalamine for the treatment of infections” (VIRBAC, priority 2016, dated 2020):
Converted amounts (≈) assume the structure as drawn.

Tests used:
[1] = test system: P. aeruginosa Human ATCC 27853; experiment: MIC determination, P. aeruginosa human ATCC 27853; type: cell-based; conditions: Pseudomonas aeruginosa, ATCC27853; Gram-negative; Mueller-Hinton medium, 24 h at 37° C.
Method: (§1) A negative control (2 mL of sterile culture medium)
(§2) A positive control (1940 μL of culture medium+40 μL of DMSO+20 μL of the bacterial suspension) from a thawed biological strain (the biological strains are stored at −80° C. in glycerol).
(§3) The tubes were incubated at 37° C. for 24 hours at 100 rpm.
(§4) The microorganisms were handled under a type L2 laboratory fume cupboard and, before any handling, a UV cycle was programmed and only sterile material was used. […] The chemical compounds to be tested were prepared in a DMSO/methanol mixture (50/50) at a concentration of 5 mg/mL.
(§5) After 24 hours of incubation, a measurement of the optical density was taken using a spectrophotometer at 600 nm, collecting 100 μL of the bacterial suspension diluted in 900 μL of the sterile culture medium. This test required the use of a 96-well plate and the required volume of the microbial suspension to be seeded was calculated for an OD corresponding to a value equal to 0.01 in each well. In this plate, the first line corresponded to the negative control (195 μL of sterile culture medium in each well), the second line corresponded to the positive control (seeded culture medium supplemented with 2% of DMSO), and the third line was loaded twice with bacterial suspension; 8 μL of test product were placed in each well. Thereafter, a 0.5 cascade dilution was performed from this line.
(§6) The first column served as inhibition control. A sterile filter was then placed on the microplate, allowing the passage of gases but not of contaminants. The microplate was incubated at 37° C. under a humid atmosphere for 24 hours.
(§7) NB: The medium used is Mueller-Hinton (MH) medium for bacteria. All the tests were performed in duplicate.
(§8) After incubation, the filter was replaced with a transparent film, and an OD reading was then taken in an iEMS plate spectrophotometer at 620 nm. Calculation of the minimum inhibitory concentration (MIC) was performed.

[2] = test system: S. intermedius Animal (1051997); experiment: MIC determination, S. intermedius animal (1051997); type: cell-based; conditions: Staphylococcus intermedius; Gram-positive; Mueller-Hinton medium, 24 h at 37° C.
Method: as §1, §2, §3, §4, §5, §6, §7, §8

P. aeruginosa (1051575) = experiment: Potentiation of doxycycline activity (combination MIC); type: cell-based, Pseudomonas aeruginosa; conditions: in presence of doxycycline 2 μg/mL; 24 hours at 37° C.
S. aureus Animal (340) = experiment: MIC determination, S. aureus animal (340); type: cell-based; conditions: Staphylococcus aureus; Gram-positive; Mueller-Hinton medium, 24 h at 37° C.
Method: as §1, §2, §3, §4, §5, §6, §7, §8

[3] = test system: S. aureus Human ATCC 25923; experiment: MIC determination, S. aureus human ATCC 25923; type: cell-based; conditions: Staphylococcus aureus, ATCC25923; Gram-positive; Mueller-Hinton medium, 24 h at 37° C.
Method: as §1, §2, §3, §4, §5, §6, §7, §8

E. coli Animal (1956) = experiment: MIC determination, E. coli animal (1956); type: cell-based; conditions: Escherichia coli; Gram-negative; Mueller-Hinton medium, 24 h at 37° C.
Method: as §1, §2, §3, §4, §5, §6, §7, §8

[4] = test system: P. aeruginosa Animal (1051575); experiment: MIC determination, P. aeruginosa animal (1051575); type: cell-based; conditions: Pseudomonas aeruginosa; Gram-negative; Mueller-Hinton medium, 24 h at 37° C.
Method: as §1, §2, §3, §4, §5, §6, §7, §8

[5] = test system: E. faecalis Human ATCC 29212; experiment: MIC determination, E. faecalis human ATCC 29212; type: cell-based; conditions: Enterococcus faecalis, ATCC29212; Gram-positive; Mueller-Hinton medium, 24 h at 37° C.
Method: as §1, §2, §3, §4, §5, §6, §7, §8

E. coli Human ATCC 28922 = experiment: MIC determination, E. coli human ATCC 28922; type: cell-based; conditions: Escherichia coli, ATCC28922; Gram-negative; Mueller-Hinton medium, 24 h at 37° C.
Method: as §1, §2, §3, §4, §5, §6, §7, §8

CHO-K1 cells = experiment: WST1 cytotoxicity test on CHO-K1 cells; type: cell-based, Chinese hamster; conditions: Cricetulus griseus, CHO-K1, 24 h, read-out: IC50 (μg/mL) CHO
Method: Test WST1 was used to measure the cytotoxic activity of the products. This is a colorimetric test which makes it possible to measure the viability and the degree of cell proliferation. It is based on cleavage of the colorless tetrazolium salts WST-1 (4-[3-(4-iodophenyl)-2-(4-nitrophenyl)-2H-5-tetrazolio]-1,3-benzene disulfonate) with mitochondrial dehydrogenases to the yellow-colored formazan derivative, which may be quantified by spectrophotometry at 420-480 nm.
The WST1 test was performed on Chinese hamster ovary cells. The CHO-K1 cells (ATCC, USA) are kept in culture in McCoy's 5A medium supplemented with 10% fetal calf serum, 2 mM of L-glutamine and a mixture of penicillin-streptomycin (100 U/ml: 10 μg/ml). The culture is incubated at 37° C. under an atmosphere enriched in CO2 (5%), and subcultured every two days.
The cells are transferred into 96-well plates (25000 cells/mL) in whole McCoy's 5A medium, and maintained for 24 hours at 37° C. under a humid atmosphere enriched in CO2 (5%). Increasing concentrations of test products are added to the wells in double tests and 8 growth controls containing the cells in the medium alone are included in each series of tests. After 24 hours at 37° C. (5% CO2), the culture medium is removed, the cells are rinsed in phosphate buffer (PBS) and 50 μL of PBS containing 10% of reagent WST1 are added to each well. After 20 minutes of incubation at 37° C., the results are read by spectrophotometry at 450 nm.
The results are expressed in dose-response relationships, modeled by nonlinear regression analysis using the TableCurve software. The 50% inhibitory concentration (IC50) represents the concentration of product that is capable of reducing the cell viability by 50%.

Structure (SMILES)	MIC [1]	MIC [2]	MIC - P. aeruginosa (1051575): content of compound of formula (I) to restore the doxycycline activity (at 2 μg/mL) (P. aeruginosa (1051575))	MIC (S. aureus Animal (340))	MIC [3]	MIC (E. coli Animal (1956))	MIC [4]	MIC [5]	MIC (E. coli Human ATCC 28922)	IC50 (CHO-K1 cells)
CC(C)NC(=O)CC[C@@H](C)[C@H]1CCC2C3CCC4C[C@@H](NCCCNCCCNCCCN)CC[C@]4(C)C3CC[C@@]21C (stereo partly drawn) [(17), 3β-norspermino-N-isopropyllithocholamide]	64 µg/mL (≈ 109 µM)	4 µg/mL (≈ 6.8 µM)	2 µg/mL	8 µg/mL (≈ 13.6 µM)	8 µg/mL (≈ 13.6 µM)	32 µg/mL (≈ 54.4 µM)	32 µg/mL (≈ 54.4 µM)	8 µg/mL (≈ 13.6 µM)	16 µg/mL (≈ 27.2 µM)	17 µg/mL (≈ 28.9 µM)
CC(C)NC(=O)CC[C@@H](C)[C@H]1CCC2C3CCC4C[C@@H](NCCCNCCCN)CC[C@]4(C)C3CC[C@@]21C (stereo partly drawn) [(18), 3β-norspermidino-N-isopropyllithocholamide]	104 µg/mL (≈ 196 µM)	0.8 µg/mL (≈ 1.51 µM)	0.8 µg/mL	3 µg/mL (≈ 5.65 µM)	6 µg/mL (≈ 11.3 µM)	3 µg/mL (≈ 5.65 µM)	26 µg/mL (≈ 49 µM)	12 µg/mL (≈ 22.6 µM)	26 µg/mL (≈ 49 µM)	20 µg/mL (≈ 37.7 µM)
CC(C)NC(=O)CC[C@@H](C)[C@H]1CCC2C3CCC4C[C@@H](NCCNCCNCCNCCNCCN)CC[C@]4(C)C3C[C@H](O)[C@@]21C (stereo partly drawn) [(20), 3β-(pentaethylenehexamine)-N-isopropyldeoxycholamide]	32 µg/mL (≈ 49.4 µM)	4 µg/mL (≈ 6.17 µM)	4 µg/mL	8 µg/mL (≈ 12.3 µM)	8 µg/mL (≈ 12.3 µM)	16 µg/mL (≈ 24.7 µM)	32 µg/mL (≈ 49.4 µM)	8 µg/mL (≈ 12.3 µM)	8 µg/mL (≈ 12.3 µM)	18 µg/mL (≈ 27.8 µM)
CC(C)NC(=O)CC[C@@H](C)[C@H]1CCC2C3C(CC[C@@]21C)[C@@]1(C)CC[C@H](NCCNCCNCCNCCNCCN)CC1C[C@H]3O (stereo partly drawn) [(22), 3β-(pentaethylenehexamine)-N-isopropylchenodeoxycholamide]	130 µg/mL (≈ 201 µM)	2 µg/mL (≈ 3.09 µM)	4 µg/mL	8 µg/mL (≈ 12.3 µM)	8 µg/mL (≈ 12.3 µM)	32 µg/mL (≈ 49.4 µM)	65 µg/mL (≈ 100 µM)	32 µg/mL (≈ 49.4 µM)	32 µg/mL (≈ 49.4 µM)	120 µg/mL (≈ 185 µM)
CC(C)NC(=O)CC[C@@H](C)[C@H]1CCC2C3CCC4C[C@@H](NCCNCCNCCNCCNCCN)CC[C@]4(C)C3CC[C@@]21C (stereo partly shown) [(24)]	128 µg/mL (≈ 203 µM)	4 µg/mL (≈ 6.33 µM)	8 µg/mL	8 µg/mL (≈ 12.7 µM)	8 µg/mL (≈ 12.7 µM)	64 µg/mL (≈ 101 µM)	128 µg/mL (≈ 203 µM)	16 µg/mL (≈ 25.3 µM)	32 µg/mL (≈ 50.6 µM)	35 µg/mL (≈ 55.4 µM)
CC(C)NC(=O)CC[C@@H](C)[C@H]1CCC2C3C(C[C@H](O)[C@@]21C)[C@@]1(C)CC[C@H](NCCCN(C)CCCN)CC1C[C@H]3O (stereo partly drawn) [(26), 3β-(bis(3-aminopropyl)methylamine)-N-isopropylcholamide]	112 µg/mL (≈ 194 µM)	14 µg/mL (≈ 24.3 µM)	4 µg/mL	28 µg/mL (≈ 48.5 µM)	28 µg/mL (≈ 48.5 µM)	56 µg/mL (≈ 97.1 µM)	56 µg/mL (≈ 97.1 µM)	56 µg/mL (≈ 97.1 µM)	28 µg/mL (≈ 48.5 µM)	80 µg/mL (≈ 139 µM)
CC(C)NC(=O)CC[C@@H](C)[C@H]1CCC2C3C(CC[C@@]21C)[C@@]1(C)CC[C@H](NCCCN(C)CCCN)CC1C[C@@H]3O (stereo partly drawn) [(28), 3β-(bis(3-aminopropyl)methylamine)-N-isopropylursodeoxycholamide]	112 µg/mL (≈ 200 µM)	14 µg/mL (≈ 25 µM)	7 µg/mL	28 µg/mL (≈ 49.9 µM)	28 µg/mL (≈ 49.9 µM)	112 µg/mL (≈ 200 µM)	112 µg/mL (≈ 200 µM)	56 µg/mL (≈ 99.8 µM)	56 µg/mL (≈ 99.8 µM)	28 µg/mL (≈ 49.9 µM)
CC(C)NC(=O)CC[C@@H](C)[C@H]1CCC2C3CCC4C[C@@H](NCCCN(C)CCCN)CC[C@]4(C)C3CC[C@@]21C (stereo partly drawn) [(29), 3β-(bis(3-aminopropyl)methylamine)-N-isopropyllithocholamide]	112 µg/mL (≈ 206 µM)	7 µg/mL (≈ 12.8 µM)	7 µg/mL	14 µg/mL (≈ 25.7 µM)	14 µg/mL (≈ 25.7 µM)	28 µg/mL (≈ 51.4 µM)	112 µg/mL (≈ 206 µM)	28 µg/mL (≈ 51.4 µM)	28 µg/mL (≈ 51.4 µM)	6 µg/mL (≈ 11 µM)
CC(C)NC(=O)CC[C@@H](C)[C@H]1CCC2C3CCC4C[C@@H](NCCCNCCCCNCCCN)CC[C@]4(C)C3C[C@H](O)[C@@]21C (stereo partly drawn) [(30), 3β-spermino-N-isopropyldeoxycholamide]	4 µg/mL (≈ 6.47 µM)	1 µg/mL (≈ 1.62 µM)	1 µg/mL	8 µg/mL (≈ 12.9 µM)	8 µg/mL (≈ 12.9 µM)	30 µg/mL (≈ 48.5 µM)	4 µg/mL (≈ 6.47 µM)	15 µg/mL (≈ 24.3 µM)	15 µg/mL (≈ 24.3 µM)	30 µg/mL (≈ 48.5 µM)
C[C@H](CCC(=O)NC1CCCCC1)[C@H]1CCC2C3C(CC[C@@]21C)[C@@]1(C)CC[C@H](NCCCNCCCN)CC1C[C@H]3O (stereo partly drawn) [(38), 3β-norspermidino-N-cyclohexylchenodeoxycholamide]	30 µg/mL (≈ 51.1 µM)	2 µg/mL (≈ 3.41 µM)	2 µg/mL	4 µg/mL (≈ 6.81 µM)	4 µg/mL (≈ 6.81 µM)	15 µg/mL (≈ 25.6 µM)	30 µg/mL (≈ 51.1 µM)	4 µg/mL (≈ 6.81 µM)	30 µg/mL (≈ 51.1 µM)	12 µg/mL (≈ 20.4 µM)
